Consider eight molecules from ChEMBL document CHEMBL1201862, “PubChem BioAssay data set” (2004).

SMILES strings stand for the structures.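 Tested at 5 concentrations; 48 h exposure; 96-well plates; endpoints linearly interpolated, else capped at highest concentration. GI50: concentration for 50% inhibition of growth.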 The source made the active and inactive calls. Rule as the data show it: active = GI50 up to about 1.1 µM and inactive = higher.

Some test systems named below: HOP-62; OVCAR-8; IGROV-1; U-251; SK-MEL-28; HCC 2998; COLO 205; NCI-H522; HCT-116; HL-60; SK-OV-3; UO-31; SK-MEL-5; HCT-15; NCI-H226; HT-29; RPMI-8226; K562; CAKI-1; EKVX.
What all share (experiment): DTP human tumour cell line panel, 48 h

On to `CCCC[S+]([O-])CC(CO)NC(=O)/C=C/c1c(C)[nH]c(=O)[nH]c1=O` (stereo not given), for which the GI50 is 8.93 µM (inactive) in the assay with HOP-62; 6.73 µM (inactive) in the assay with OVCAR-8; 7.29 µM (inactive) with IGROV-1; 4.03 µM (inactive) with U-251; 6.5 µM (inactive) in the assay on SK-MEL-28; 8.28 µM (inactive) with HCC 2998. Besides, the GI50 in the assay with COLO 205 is 16.7 µM (inactive); with NCI-H522, 5.77 µM (inactive); in the assay with HCT-116, 10 µM (inactive); in the assay with HL-60 it was 7.23 µM (inactive); with SK-OV-3 it was 10.7 µM (inactive); in the assay on UO-31, 13.3 µM (inactive). The GI50 was 4.3 µM (inactive) in the assay with SK-MEL-5; 31.8 µM in the assay on HCT-15; 11.7 µM (inactive) in the assay with NCI-H226; 14.8 µM (inactive) with HT-29; 9.02 µM (inactive) in the assay on RPMI-8226; 8.97 µM (inactive) in the assay with K562. Besides, the GI50 in the assay with CAKI-1 is 18.9 µM (inactive); in the assay on EKVX, 8.47 µM (inactive).

Regarding `O=C(Nc1cccc([N+](=O)[O-])c1)C(=O)C(C(=O)c1ccccc1F)C1OC(=O)C2C=CC=CC21` (stereo not given), the GI50 was 50.9 µM (inactive) with HOP-62; 30.3 µM (inactive) with OVCAR-8; 53.8 µM (inactive) in the assay with IGROV-1; 22.3 µM (inactive) in the assay with U-251; 30.3 µM (inactive) in the assay on SK-MEL-28; 36.1 µM (inactive) in the assay with HCC 2998. Besides, the GI50 in the assay on COLO 205 is 35.2 µM (inactive); with NCI-H522, 18.9 µM (inactive); with HCT-116 it was 19.4 µM (inactive); in the assay with HL-60, 20 µM (inactive); in the assay on SK-OV-3, 41.3 µM (inactive); with UO-31 it was 44.1 µM (inactive). Moreover, the GI50 is 73.1 µM (inactive) in the assay on SK-MEL-5; 27.5 µM with HCT-15; 13.4 µM (inactive) in the assay with NCI-H226; 41.6 µM (inactive) with HT-29; 23.8 µM (inactive) in the assay on RPMI-8226; 31.8 µM (inactive) with K562. Further, the GI50 is 59.2 µM (inactive) in the assay on CAKI-1 and 41 µM (inactive) with EKVX.

For `S=c1sc2c(s1)SC(c1ccccc1)CS2` (stereo not given), the GI50 in the assay on HOP-62 is > 90.8 µM (inactive); with OVCAR-8, > 100 µM (inactive); with IGROV-1, > 100 µM (inactive); in the assay with U-251, > 100 µM (inactive); in the assay on SK-MEL-28, > 100 µM (inactive); in the assay on HCC 2998 it was > 85.1 µM (inactive). For the same molecule, the GI50 in the assay on COLO 205 is > 100 µM (inactive); in the assay with NCI-H522 it was > 100 µM (inactive); in the assay with HCT-116, > 100 µM (inactive); in the assay on HL-60, > 51.3 µM (inactive); with SK-OV-3, > 100 µM (inactive); in the assay with UO-31, > 100 µM (inactive). Also, the GI50 in the assay with SK-MEL-5 was > 100 µM (inactive); in the assay with HCT-15 it was over 100 µM; in the assay with NCI-H226, > 100 µM (inactive); in the assay on HT-29, > 100 µM (inactive); in the assay on RPMI-8226 it was > 100 µM (inactive); in the assay with K562 it was > 100 µM (inactive). In addition, the GI50 in the assay with CAKI-1 was 1 µM (active); in the assay with EKVX, > 100 µM (inactive).

For `CCOC(=O)C(O)(NC(=O)c1ccccc1F)C(F)(F)F` (stereo not given), the GI50 is > 100 µM (inactive) in the assay on HOP-62; > 100 µM (inactive) with OVCAR-8; 84.5 µM (inactive) in the assay on IGROV-1; > 100 µM (inactive) in the assay on U-251; > 100 µM (inactive) with SK-MEL-28; > 100 µM (inactive) in the assay on HCC 2998. For the same molecule, the GI50 in the assay on COLO 205, with NCI-H522, in the assay with HCT-116, in the assay on HL-60, with SK-OV-3 and with UO-31 was > 100 µM (inactive) in each case. The GI50 was > 100 µM (inactive) in the assay with SK-MEL-5; over 100 µM in the assay on HCT-15; > 100 µM (inactive) in the assay on NCI-H226; > 100 µM (inactive) with HT-29; > 100 µM (inactive) in the assay on RPMI-8226; > 100 µM (inactive) with K562. The GI50 with CAKI-1 and with EKVX was > 100 µM (inactive) each time.

On to `O=C1Nc2ccccc2N/C1=C\C(=O)C(F)F`, for which the GI50 with HOP-62, in the assay on OVCAR-8, in the assay on IGROV-1, with U-251, in the assay on SK-MEL-28 and with HCC 2998 was > 100 µM (inactive) in each case. Further, the GI50 with COLO 205, with NCI-H522, with HCT-116, in the assay with HL-60, in the assay with SK-OV-3 and in the assay with UO-31 was > 100 µM (inactive) in each case. Also, the GI50 in the assay on SK-MEL-5 was > 100 µM (inactive); in the assay with HCT-15, over 100 µM; in the assay with NCI-H226, > 100 µM (inactive); in the assay with HT-29, > 100 µM (inactive); in the assay on RPMI-8226 it was > 100 µM (inactive); with K562, > 100 µM (inactive). Also, the results for the GI50 with CAKI-1 and in the assay with EKVX were > 100 µM (inactive) and 14.9 µM (inactive), respectively.

On to `CNC(=O)OC(C)CN1c2ccccc2Sc2ccc(Cl)cc21` (stereo not given), for which the GI50 in the assay with HOP-62, in the assay with OVCAR-8, in the assay with IGROV-1, with U-251, in the assay on SK-MEL-28 and in the assay with HCC 2998 was > 10 µM (inactive) in each case. Moreover, the GI50 in the assay on COLO 205, with NCI-H522, with HCT-116, in the assay with HL-60, with SK-OV-3 and in the assay on UO-31 was > 10 µM (inactive) each time. For the same molecule, the GI50 in the assay with SK-MEL-5 was > 10 µM (inactive); in the assay with HCT-15 it was over 10 µM; in the assay with NCI-H226 it was > 10 µM (inactive); in the assay on HT-29, > 10 µM (inactive); with RPMI-8226 it was > 10 µM (inactive); in the assay with K562 it was > 10 µM (inactive). Moreover, the GI50 in the assay on CAKI-1 and with EKVX was > 10 µM (inactive) each time.

On to `COc1cc(C2c3cc4c(cc3[C@@H](Nc3ccc(Oc5ccccc5)cc3)C3COC(=O)[C@H]23)OCO4)cc(OC)c1O` (stereo not given in full), for which the GI50 was 0.851 µM (active) in the assay with HOP-62; 4.5 µM (inactive) with OVCAR-8; 4.38 µM (inactive) in the assay on IGROV-1; 2.36 µM (inactive) in the assay on U-251; > 42.3 µM (inactive) with SK-MEL-28; 1.64 µM (inactive) in the assay on HCC 2998. Also, the GI50 is 1.5 µM (inactive) with COLO 205; 2.25 µM (inactive) in the assay on NCI-H522; 0.979 µM (active) in the assay on HCT-116; 0.362 µM (active) in the assay on HL-60; 4.93 µM (inactive) in the assay on SK-OV-3; 2.59 µM (inactive) with UO-31. Moreover, the GI50 was 1.58 µM (inactive) in the assay with SK-MEL-5; 1.3 µM in the assay with HCT-15; 1.56 µM (inactive) in the assay with NCI-H226; 1.74 µM (inactive) in the assay on HT-29; 1.08 µM (active) in the assay on RPMI-8226; 1.14 µM (inactive) in the assay with K562. In addition, the results for the GI50 in the assay on CAKI-1 and in the assay with EKVX were 1.35 µM (inactive) and > 39.7 µM (inactive), respectively.

For the molecule `CCC(=C/[C@H](C)C/C=C/C(C)=C/[C@@H](C)C(=O)[C@@H](C)[C@H](O)[C@@H](C)CC)/C=C/[C@H]1CC=CC(=O)O1` [CALLYSTATIN A], the 50% growth inhibitory concentration (GI50) in the assay with HOP-62, in the assay with OVCAR-8, with IGROV-1, in the assay with U-251, in the assay with SK-MEL-28 and in the assay on HCC 2998 was < 0.0012 µM (active) in each case. Also, the GI50 with COLO 205, in the assay with NCI-H522, in the assay with HCT-116, in the assay with HL-60, in the assay with SK-OV-3 and in the assay with UO-31 was < 0.0012 µM (active) each time. Moreover, the GI50 was < 0.0012 µM (active) in the assay with SK-MEL-5; under 0.0012 µM in the assay with HCT-15; 0.0168 µM (active) in the assay on NCI-H226; < 0.0012 µM (active) in the assay with HT-29; 2.67 µM (inactive) in the assay on RPMI-8226; < 0.0012 µM (active) in the assay with K562. For the same molecule, the GI50 with CAKI-1 and with EKVX was < 0.0012 µM (active) in each case.

The term GI50 denotes the concentration that inhibits growth by half.
